Common to all, as to assay: NCI anticancer screen, dose series, 48 h
Experiment [1] concerns 786-0 renal.
The subject of experiment [2] is RXF 393 renal.
For experiment [3], the system named is SK-MEL-28 melanoma.
Experiment [4] has as its system SK-MEL-5 melanoma.
Experiment [5] deals with SN12C renal.
Experiment [6] relates to SW-620 colon.
For experiment [7], the system named is UACC-257 melanoma.
Experiment [8] relates to LOX IMVI melanoma.
The test system of experiment [9] is MALME-3M melanoma.

This note sets out measurements from PubChem BioAssay (NCI).

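Five compound concentrations were applied to cells in 96-well plates for 48 hours; endpoints were derived by simple linear interpolation of the resulting dose-response curve. GI50: concentration for 50% inhibition of growth. At the TGI there is no net growth.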

With `C=CCOC(=O)CC[N+]1=CCC(c2ccccc2)(c2ccccc2)O1`, the TGI in [1], in [2], in experiment [3], in [4], in experiment [5] and in [6] was above 100 µM throughout. The compound further registered a TGI in [7] above 100 µM.

Consider `O=C(c1cc2ccccc2cc1O)N1CCCCC1`, for which the TGI in experiment [1] is above 100 µM; in experiment [8], above 100 µM; in experiment [2] it was above 100 µM; in [3], above 100 µM; in experiment [4] it was 54.6 µM; in experiment [6] it was above 100 µM. In experiment [7], this compound had a TGI above 100 µM.

Turning to `CC(C)(C)NC(=O)/C(=C\Sc1ccccc1)c1ccc2c(c1)OCO2`, the TGI is above 100 µM in experiment [1]; 48.9 µM in [8]; above 100 µM in experiment [3]; 32.8 µM in [4]; 84.2 µM in experiment [5]; above 100 µM in [6]. This compound displayed a TGI in experiment [7] of 74.5 µM.

`Brc1cccc(Nc2nc(-c3cccs3)nc3ccc(Br)cc23)c1`: the TGI was above 100 µM in [1]; above 100 µM in experiment [8]; 65.2 µM in [9]; above 100 µM in experiment [3]; 30.9 µM in experiment [4]; 71.3 µM in experiment [5]. In addition, the TGI in experiment [6] was above 100 µM; in experiment [7], 74 µM.

For the compound `COc1cc(NS(C)(=O)=O)ccc1N1Cc2cnc3ccc4[nH]c(C)cc1c4c23`, the TGI in [1] is 36.5 µM; in experiment [8], above 100 µM; in experiment [2] it was above 100 µM; in [3] it was above 100 µM; in [4], above 100 µM; in experiment [6], above 100 µM. Further, the TGI in experiment [7] was above 100 µM.

In the case of `C/C(CC1C2CCCC1C2)=N\NC(N)=O` (stereo not given), the TGI in experiment [1], in experiment [8], in experiment [9], in [3], in [4] and in [5] was above 100 µM throughout. Besides, the TGI in experiment [6] and in experiment [7] was above 100 µM throughout.

In the case of `O=c1c2ccccc2nc2[nH][nH]c(=S)n12`, the TGI in experiment [1], in [8], in experiment [3], in experiment [4], in [5] and in experiment [6] was above 100 µM each time. This compound also displayed a TGI in [7] above 100 µM.

Turning to `O=[N+]([O-])/C(C(Cl)=C(Cl)Cl)=C(\Nc1cccc2cccnc12)SCc1ccccc1`, the TGI amounted to 47.3 µM in experiment [1]; 28.9 µM in experiment [9]; 33.9 µM in experiment [3]; 60.7 µM in experiment [5]; 36.8 µM in [6]; 49.2 µM in experiment [7].

Take `O=C(/C=C/c1ccsc1)c1ccsc1`: the TGI was determined as 47.4 µM in [1]; 35.2 µM in experiment [8]; 75.1 µM in experiment [9]; 89.3 µM in experiment [3]; 35.1 µM in experiment [4]; 40.4 µM in [5]. In addition, the figures for the TGI in experiment [6] and in experiment [7] were 60.1 µM and 39.6 µM, respectively.

For the compound `CN(C)c1ccc(C=C2N=C(c3ccccc3)N(c3cc(C(=O)c4ccccc4)ccc3N3C(=O)/C(=C/c4ccc(N(C)C)cc4)N=C3c3ccccc3)C2=O)cc1`, the TGI in experiment [1], in [8], in experiment [3], in [4], in experiment [5] and in [6] was above 100 µM each time. In experiment [7], this compound registered a TGI above 100 µM.

Consider `COc1cc([N+](=O)[O-])c(OC)cc1-c1nc2sc(Cl)cn2c1/C=N/Nc1ccccn1`, for which the GI50 is above 50 µM in experiment [8]; 12.6 µM in [2]; 12.8 µM in [4]; 8.53 µM in experiment [5]; above 50 µM in experiment [6]; above 50 µM in [7]. The TGI was above 50 µM in experiment [8]; 26.2 µM in experiment [2]; 36 µM in experiment [4]; 36.8 µM in [5]; above 50 µM in experiment [6]; above 50 µM in [7].

Take `CO[C@]12CC(=O)C3(C(C[C@H]4CC5CC=C6C[C@@H](OC(C)=O)CC[C@]6(OC(C)=O)C5C[C@@]43C)C1)C1C[C@H]3[C@@H]4CC=C5C[C@@H](OC(C)=O)CC[C@]5(OC(C)=O)[C@H]4CC[C@]3(C)C12` (stereo not given in full): the TGI in [1] was above 100 µM; in experiment [8], 53.4 µM; in experiment [9], 35 µM; in [3], above 100 µM; in experiment [4], 14.7 µM; in [5], 29.8 µM. The TGI in [6] and in experiment [7] was above 100 µM throughout.

In the case of `Cc1c2c(n(CCc3ccc(Cl)cc3)c1C)NN=C(C#N)S2(=O)=O`, the TGI in experiment [1], in experiment [8], in experiment [9], in experiment [3], in experiment [4] and in experiment [5] was above 100 µM throughout. The TGI in experiment [6] and in experiment [7] was above 100 µM in each case.
